The record followed here is PMC11367390 (RSC Advances, 2024).

Each structure is given as a SMILES string.

In this experiment the target is α-Glucosidase from Saccharomyces cerevisiae (Saccharomyces cerevisiae, UniProt P53341). The experiment can be described thus: In vitro α-glucosidase inhibition study. The settings on record: for inhibition at 25 µM: pH 6.8, read-out: Inhibition at 25 μM (%); for IC50: IC50, μM, average value ± standard deviation, p-nitrophenyl α-D-glucoside substrate, pH 6.8, 37 °C.
Sequence of α-Glucosidase from Saccharomyces cerevisiae (P53341 whole entry): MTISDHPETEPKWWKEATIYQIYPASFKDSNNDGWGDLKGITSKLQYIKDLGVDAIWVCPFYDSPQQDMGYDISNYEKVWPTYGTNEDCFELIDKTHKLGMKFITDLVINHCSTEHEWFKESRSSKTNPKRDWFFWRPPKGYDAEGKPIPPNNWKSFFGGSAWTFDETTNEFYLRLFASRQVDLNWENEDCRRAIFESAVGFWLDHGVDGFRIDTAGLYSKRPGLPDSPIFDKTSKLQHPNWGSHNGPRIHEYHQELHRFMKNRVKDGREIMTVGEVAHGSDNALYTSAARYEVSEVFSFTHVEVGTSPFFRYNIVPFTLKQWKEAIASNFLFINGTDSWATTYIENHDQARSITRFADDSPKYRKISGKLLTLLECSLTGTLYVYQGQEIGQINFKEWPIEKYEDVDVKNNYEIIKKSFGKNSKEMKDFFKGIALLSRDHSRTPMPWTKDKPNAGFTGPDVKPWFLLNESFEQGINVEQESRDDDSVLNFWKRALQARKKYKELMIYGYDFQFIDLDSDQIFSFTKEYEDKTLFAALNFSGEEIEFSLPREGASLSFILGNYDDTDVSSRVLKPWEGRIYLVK

One may read the inhibition as the relative decrease from the control value, in per cent. With `O=c1c(-c2ccc(OC(F)(F)F)cc2)coc2cc(O)ccc12` [Compound 6j, 7-hydroxy-4′-trifluoromethoxyisoflavone], the inhibition at 25 µM stood at 39%.
As usually defined, the IC50 is the concentration that inhibits the measured activity by half. A low value points to inhibition by little substance. Turning to `Cc1cc(C)n(Cc2c(O)ccc3c(=O)c(-c4ccc(OC(F)(F)F)cc4)coc23)n1` [Compound 12i], the midpoint of inhibition, the IC50, lay at 5.8 ± 0.2 µM and the inhibition at 25 µM came out at 94%.
On the same counts, the results for `COc1ccc(-c2coc3c(Cn4cc5ccccc5n4)c(O)ccc3c2=O)cc1` [Compound 14b] are 23.9 ± 2.3 µM and 50.3%.
The like results for `O=c1c(-c2ccc(O)cc2)coc2c(Cn3ccnc3)c(O)ccc12` [Compound 9d] were, in that order, 27 ± 0.2 µM and 42%.
On to `Cc1cc(=O)oc2c(Cn3ccnc3)c(O)ccc12` [Compound 9b], for which the IC50 was found to be 23.6 ± 1.8 µM and the inhibition at 25 µM came to 53.4%.
The like results for `O=c1c(-c2ccc(OC(F)(F)F)cc2)coc2c(Cn3cnc4ccccc43)c(O)ccc12` [Compound 10h] were, in that order, 9.5 ± 1.6 µM and 99.1%.
On the same counts, the results for `Cc1cc(C)n(Cc2c(O)ccc3c(=O)c(-c4ccc(O)cc4)coc23)n1` [Compound 12c] are 27.4 ± 1.9 µM and 42.8%.
With `COc1ccc(-c2coc3c(Cn4ncc5ccccc54)c(O)ccc3c2=O)cc1` [Compound 13b], the IC50 was 17.1 ± 2.8 µM and the inhibition at 25 µM was 73%.
`COc1ccc(-c2c(C)oc3c(Cn4cnc5ccccc54)c(O)ccc3c2=O)cc1` [Compound 10f]: half-maximal inhibition (IC50) was put at 25.5 ± 7.9 µM and the inhibition at 25 µM was 48.6%.
On the same counts, the results for `COc1ccc(-c2coc3c(Cn4cnc5ccccc54)c(O)ccc3c2=O)cc1` [Compound 10d] are 20.6 ± 2.1 µM and 64.6%.
On the same counts, the results for `COc1ccc(-c2coc3c(Cn4nc(C)cc4C)c(O)ccc3c2=O)cc1` [Compound 12d] are 20.9 ± 2.5 µM and 67.3%.
The like results for `Cc1cc(=O)oc2c(Cn3cnc4ccccc43)c(O)ccc12` [Compound 10b] were, in that order, 21.1 ± 0.7 µM and 69.3%.
In the case of `O=c1c(-c2ccc(OC(F)(F)F)cc2)coc2c(Cn3cccn3)c(O)ccc12` [Compound 11j], the IC50 was 14.3 ± 2 µM and the inhibition at 25 µM is 84.1%.
